For data set [1], the target named is T1, Z α1‐antitrypsin (Homo sapiens, UniProt P01009, E366K). The data set can be described thus: TR‐FRET immunoassay (2C1 antibody) of Z α1‐antitrypsin polymerisation, 37°C, 72 h. Type of data set: biochemical. On the set-up: purified from the plasma of Z α1‐antitrypsin homozygotes; from tissue; host or cells: human plasma of Z α1-antitrypsin homozygotes. The source says: Z α1‐antitrypsin is a conformationally dynamic molecule (Lomas et al, 1992; Knaupp et al, 2010) that represents a non‐classical target for drug discovery. A cell‐free assay approach to hit finding was undertaken so as not to miss compounds that bind α1‐antitrypsin and block polymerisation but lack the molecular properties to cross cell membranes. This comprised the following: (i) an encoded library technology (ELT) screen (Goodnow et al, 2017) of a library with a nominal diversity of 2 × 10^12 unique components to identify binders to Z α1‐antitrypsin and (ii) a high‐throughput screen (HTS) of the GSK compound collection (~ 1.7 million compounds) for small molecules that could block polymerisation of Z α1‐antitrypsin. […] In the HTS assay, polymerisation of purified Z α1‐antitrypsin was induced by incubation at 37°C for 72 h in the presence of test compounds, with end‐point quantification of polymers performed using the polymer‐specific monoclonal antibody, 2C1 (Miranda et al, 2010) in a TR‐FRET‐based immunoassay. […]
An antibody‐based time‐resolved fluorescence resonance energy transfer (TR‐FRET) assay was developed to monitor the polymerisation of 5 nM Z α1‐antitrypsin following incubation with varying concentrations of compounds at 37°C for 72 h. This assay used the 2C1 monoclonal antibody (1.25 nM) that is specific to pathological polymers of α1‐antitrypsin (Miranda et al, 2010), a polyclonal antibody (1/320 dilution) that binds to all forms of α1‐antitrypsin (Abcam product 9373), an anti‐mouse IgG (1.5 nM) labelled with fluorescence donor Eu‐W1024 (Perkin Elmer product AD0076) and an anti‐rabbit IgG (14.3 nM labelled with acceptor [APC]). […] The TR‐FRET signal was read on an Envision plate reader (PerkinElmer), by excitation of Europium at 337 nm and detection of emission at 665 and 620 nm.

In the next data set the target is Adrenergic β2 (Homo sapiens, UniProt P07550). Description: Off‐target panel: Adrenergic β2 (DRX). The data set is classed as cell-based. The settings on record: read-out: Mean (PXC50). The protocol: (§1) GSK716 selectivity and PK properties were profiled in order to investigate the suitability of GSK716 for progression into in vivo studies and the potential for taking it forward as a clinical candidate for testing in humans. Since GSK716 results in loss of inhibitory activity of α1‐antitrypsin, the effect of the compound was assessed on other closely related serpins. […] Furthermore, there were no off‐target effects in a panel of assays considered predictive of known safety liabilities that precluded further development of GSK716 (Table EV1).

In a further data set the test system is NULL CHO-K1. The data set can be described thus: Off‐target panel: NULL CHO-K1 Agonist (DRX). The settings on record: Cricetulus griseus, read-out: Mean (PXC50). Type of data set: cell-based. The protocol:
as §1

For the next data set, the target named is OPRM1 (Homo sapiens, UniProt P35372). The data set can be described thus: Off‐target panel: OPRM1 (DRX). The data set is classed as cell-based. As for the experimental part: as §1
For another data set, the target named is human serum albumin (Homo sapiens, UniProt P02768). The data set is classed as in vitro ADME.
Data set [2] has as its target T1, Z α1‐antitrypsin. Description: Association kinetics by intrinsic tryptophan fluorescence (stopped flow), Z α1‐antitrypsin. The data set is classed as binding. On the set-up: purified from the plasma of Z α1‐antitrypsin homozygotes; from tissue; host or cells: human plasma of Z α1-antitrypsin homozygotes. The source says: The shape of the curves and native mass spectrometry (not shown) are consistent with a single high‐affinity compound binding site. No binding of the fluorescent derivative to polymers of Z α1‐antitrypsin was observed, indicating conformational selectivity for the monomeric protein (Fig 1D). The rate of interaction of the compound with the target was monitored through changes in intrinsic tryptophan fluorescence (Dafforn et al, 1999); this property was used to determine the second‐order association rate constants for GSK716 binding to Z (4.1 × 10^4 M^−1 s^−1) and M α1‐antitrypsin (2.1 × 10^2 M^−1 s^−1; Fig 1E and F). […] Therefore, the selectivity of the compound for Z over M α1‐antitrypsin is dominated by the difference in the rate of association rather than dissociation.
Kinetic parameters of GSK716 binding to M, Z, S (Glu264Val) and Baghdad (Ala336Pro) (Haq et al, 2016) α1‐antitrypsin were measured by detecting intrinsic tryptophan fluorescence of the protein (excitation at 280 nm and detection of emission at 320 nm) on a stopped flow apparatus (Applied Photophysics) (Kim & Yu, 1996; Dafforn et al, 1999). A competition assay for binding to M α1‐antitrypsin and Z α1‐antitrypsin and Z α1‐antitrypsin polymers (Lomas et al, 1993; Irving et al, 2011; Haq et al, 2013), based on an Alexa488‐labelled analogue of GSK716 (A488‐GSK716), was used to determine the binding affinity of test compounds.

In the next data set the target is NaV1.5 (Homo sapiens, UniProt Q14524). The data set can be described thus: Off‐target panel: NaV1.5 (IonWorks). The data set is classed as cell-based. As for the experimental part:
as §1
For orientation: In patch-clamp work, channel activity is measured electrically.

Another data set has as its target NK1 (TACR1) (Homo sapiens, UniProt P25103). The data set can be described thus: Off‐target panel: NK1 (TACR1) (DRX). Type of data set: cell-based. The settings on record: Antagonist, read-out: Mean (PXC50). As for the experimental part: as §1
For the next data set, the target named is OATP1B1 (Homo sapiens, UniProt Q9Y6L6). Description: Off‐target panel: OATP1B1. The settings on record: Inhibition, read-out: Mean (PXC50). Type of data set: in vitro ADME. The protocol: as §1

Molecules are shown by their SMILES.

We go through one compound from paper PMC7933930, “Development of a small molecule that corrects misfolding and increases secretion of Z α1‐antitrypsin” (EMBO Molecular Medicine, 2021).

T1 sequence (P01009 25-418 E366K): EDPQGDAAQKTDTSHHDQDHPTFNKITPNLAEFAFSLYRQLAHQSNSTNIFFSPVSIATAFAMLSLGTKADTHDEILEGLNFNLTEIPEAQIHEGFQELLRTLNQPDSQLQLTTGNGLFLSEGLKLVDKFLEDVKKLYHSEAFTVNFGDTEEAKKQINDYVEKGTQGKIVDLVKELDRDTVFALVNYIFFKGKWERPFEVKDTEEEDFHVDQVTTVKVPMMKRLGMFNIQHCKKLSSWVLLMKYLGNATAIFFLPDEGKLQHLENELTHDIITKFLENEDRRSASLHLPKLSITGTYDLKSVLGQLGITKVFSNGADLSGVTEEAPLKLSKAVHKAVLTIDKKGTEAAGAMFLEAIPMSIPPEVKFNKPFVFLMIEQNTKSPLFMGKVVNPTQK
Adrenergic β2, sequence (P07550 whole entry): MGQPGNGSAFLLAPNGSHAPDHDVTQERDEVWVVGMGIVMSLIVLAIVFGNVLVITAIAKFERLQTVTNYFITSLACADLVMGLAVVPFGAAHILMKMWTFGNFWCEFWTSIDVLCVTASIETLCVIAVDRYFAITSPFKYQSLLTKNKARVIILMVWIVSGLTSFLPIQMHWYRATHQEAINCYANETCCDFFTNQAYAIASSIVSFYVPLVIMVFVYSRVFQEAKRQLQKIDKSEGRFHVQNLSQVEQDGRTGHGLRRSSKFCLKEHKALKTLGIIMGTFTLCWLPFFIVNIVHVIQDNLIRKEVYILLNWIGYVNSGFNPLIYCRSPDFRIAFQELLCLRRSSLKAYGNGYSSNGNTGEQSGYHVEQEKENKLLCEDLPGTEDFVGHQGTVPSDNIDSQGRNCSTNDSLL
OATP1B1, sequence (Q9Y6L6 whole entry, species assumed): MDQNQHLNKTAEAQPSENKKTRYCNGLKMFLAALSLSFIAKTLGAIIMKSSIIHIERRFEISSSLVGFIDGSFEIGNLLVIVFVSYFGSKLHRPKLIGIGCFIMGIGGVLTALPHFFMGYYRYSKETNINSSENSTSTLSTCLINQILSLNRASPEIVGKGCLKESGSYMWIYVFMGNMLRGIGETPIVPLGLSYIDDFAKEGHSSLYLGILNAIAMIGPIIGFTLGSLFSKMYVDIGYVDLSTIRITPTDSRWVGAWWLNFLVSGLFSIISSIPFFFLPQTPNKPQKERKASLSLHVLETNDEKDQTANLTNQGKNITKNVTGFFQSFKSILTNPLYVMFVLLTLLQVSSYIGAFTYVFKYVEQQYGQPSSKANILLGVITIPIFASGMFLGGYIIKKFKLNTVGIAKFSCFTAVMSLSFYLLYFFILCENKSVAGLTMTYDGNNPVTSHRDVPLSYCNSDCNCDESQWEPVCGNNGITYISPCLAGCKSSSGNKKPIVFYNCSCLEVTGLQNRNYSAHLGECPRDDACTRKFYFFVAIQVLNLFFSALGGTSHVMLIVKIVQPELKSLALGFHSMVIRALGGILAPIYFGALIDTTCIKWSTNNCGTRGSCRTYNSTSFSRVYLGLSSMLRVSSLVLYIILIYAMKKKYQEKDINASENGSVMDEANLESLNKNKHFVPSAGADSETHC
human serum albumin, sequence (P02768 25-609): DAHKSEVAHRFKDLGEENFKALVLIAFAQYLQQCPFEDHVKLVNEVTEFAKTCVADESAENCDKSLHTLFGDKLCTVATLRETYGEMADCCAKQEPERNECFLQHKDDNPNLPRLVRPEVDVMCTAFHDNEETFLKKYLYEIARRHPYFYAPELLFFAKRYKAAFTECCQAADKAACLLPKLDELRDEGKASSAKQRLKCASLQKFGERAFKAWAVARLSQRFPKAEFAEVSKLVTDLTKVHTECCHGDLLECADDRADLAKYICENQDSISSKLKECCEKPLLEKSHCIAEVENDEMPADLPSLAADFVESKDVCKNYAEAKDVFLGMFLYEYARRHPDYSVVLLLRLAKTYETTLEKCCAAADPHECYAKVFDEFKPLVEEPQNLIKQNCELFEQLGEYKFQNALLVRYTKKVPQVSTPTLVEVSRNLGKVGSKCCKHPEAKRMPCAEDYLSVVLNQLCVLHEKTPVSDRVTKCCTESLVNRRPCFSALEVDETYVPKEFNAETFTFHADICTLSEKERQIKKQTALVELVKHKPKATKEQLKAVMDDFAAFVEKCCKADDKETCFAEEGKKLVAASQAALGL
OPRM1, sequence (P35372 whole entry, species assumed): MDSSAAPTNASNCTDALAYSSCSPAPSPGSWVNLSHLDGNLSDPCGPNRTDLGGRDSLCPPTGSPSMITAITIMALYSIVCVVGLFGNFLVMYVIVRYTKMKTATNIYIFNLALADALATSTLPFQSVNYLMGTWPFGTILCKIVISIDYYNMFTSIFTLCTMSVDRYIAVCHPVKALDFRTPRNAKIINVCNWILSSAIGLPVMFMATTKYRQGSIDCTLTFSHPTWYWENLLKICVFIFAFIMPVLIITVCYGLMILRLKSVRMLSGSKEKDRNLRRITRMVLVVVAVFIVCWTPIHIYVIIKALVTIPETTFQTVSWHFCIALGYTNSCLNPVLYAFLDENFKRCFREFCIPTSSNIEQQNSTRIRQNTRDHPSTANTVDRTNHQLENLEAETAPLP
NaV1.5, sequence (Q14524 whole entry): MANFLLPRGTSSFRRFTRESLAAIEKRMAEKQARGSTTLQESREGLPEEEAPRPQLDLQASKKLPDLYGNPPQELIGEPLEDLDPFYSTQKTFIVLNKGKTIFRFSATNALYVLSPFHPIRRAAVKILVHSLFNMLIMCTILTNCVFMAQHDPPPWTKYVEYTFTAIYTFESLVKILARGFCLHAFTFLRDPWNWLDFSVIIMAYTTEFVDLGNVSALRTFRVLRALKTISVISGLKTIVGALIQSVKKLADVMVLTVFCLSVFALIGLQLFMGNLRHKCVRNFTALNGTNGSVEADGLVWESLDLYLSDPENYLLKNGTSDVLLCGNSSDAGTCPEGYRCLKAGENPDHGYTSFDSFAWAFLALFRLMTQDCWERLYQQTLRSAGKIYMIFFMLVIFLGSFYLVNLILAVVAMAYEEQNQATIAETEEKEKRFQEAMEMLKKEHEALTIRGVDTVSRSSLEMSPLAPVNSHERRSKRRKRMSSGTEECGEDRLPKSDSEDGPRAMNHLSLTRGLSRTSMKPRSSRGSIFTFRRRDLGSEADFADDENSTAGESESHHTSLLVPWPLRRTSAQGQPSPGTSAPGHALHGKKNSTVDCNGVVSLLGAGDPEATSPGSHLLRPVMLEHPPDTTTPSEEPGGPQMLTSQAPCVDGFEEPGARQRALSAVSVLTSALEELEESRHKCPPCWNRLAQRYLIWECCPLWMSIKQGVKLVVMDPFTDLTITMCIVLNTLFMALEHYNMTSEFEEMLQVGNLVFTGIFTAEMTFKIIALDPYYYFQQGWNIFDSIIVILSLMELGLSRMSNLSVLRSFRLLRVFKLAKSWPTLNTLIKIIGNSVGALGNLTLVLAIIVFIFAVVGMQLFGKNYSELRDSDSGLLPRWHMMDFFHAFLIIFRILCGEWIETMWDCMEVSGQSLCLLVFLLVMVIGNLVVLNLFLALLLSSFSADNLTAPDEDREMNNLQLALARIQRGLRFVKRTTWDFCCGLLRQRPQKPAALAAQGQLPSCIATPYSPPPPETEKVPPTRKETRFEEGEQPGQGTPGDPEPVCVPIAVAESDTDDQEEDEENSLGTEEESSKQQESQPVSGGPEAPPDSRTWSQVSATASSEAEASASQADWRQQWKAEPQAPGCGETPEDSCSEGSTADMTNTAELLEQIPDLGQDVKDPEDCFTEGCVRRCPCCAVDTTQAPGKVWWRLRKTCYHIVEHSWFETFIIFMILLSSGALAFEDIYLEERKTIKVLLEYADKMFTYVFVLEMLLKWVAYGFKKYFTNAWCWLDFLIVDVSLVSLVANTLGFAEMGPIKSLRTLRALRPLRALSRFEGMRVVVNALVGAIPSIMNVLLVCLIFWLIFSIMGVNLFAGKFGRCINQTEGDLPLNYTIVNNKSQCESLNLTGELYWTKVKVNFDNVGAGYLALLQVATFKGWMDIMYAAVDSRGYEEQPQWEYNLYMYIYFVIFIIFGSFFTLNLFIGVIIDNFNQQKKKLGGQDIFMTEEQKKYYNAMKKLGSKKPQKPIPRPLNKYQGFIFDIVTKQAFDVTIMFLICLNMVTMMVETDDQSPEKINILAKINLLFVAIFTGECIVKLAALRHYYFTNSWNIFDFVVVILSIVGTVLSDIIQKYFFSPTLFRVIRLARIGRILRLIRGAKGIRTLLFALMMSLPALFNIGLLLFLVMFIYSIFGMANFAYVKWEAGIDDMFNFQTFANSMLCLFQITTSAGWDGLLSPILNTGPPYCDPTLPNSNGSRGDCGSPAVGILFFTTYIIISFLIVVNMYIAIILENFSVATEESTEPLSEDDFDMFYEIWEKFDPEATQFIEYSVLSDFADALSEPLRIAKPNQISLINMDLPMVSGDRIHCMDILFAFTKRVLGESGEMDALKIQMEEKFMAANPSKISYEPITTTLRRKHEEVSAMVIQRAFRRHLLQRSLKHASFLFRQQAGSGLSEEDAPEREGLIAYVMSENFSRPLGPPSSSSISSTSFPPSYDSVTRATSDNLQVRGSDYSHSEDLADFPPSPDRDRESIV
NK1 (TACR1), sequence (P25103 whole entry, species assumed): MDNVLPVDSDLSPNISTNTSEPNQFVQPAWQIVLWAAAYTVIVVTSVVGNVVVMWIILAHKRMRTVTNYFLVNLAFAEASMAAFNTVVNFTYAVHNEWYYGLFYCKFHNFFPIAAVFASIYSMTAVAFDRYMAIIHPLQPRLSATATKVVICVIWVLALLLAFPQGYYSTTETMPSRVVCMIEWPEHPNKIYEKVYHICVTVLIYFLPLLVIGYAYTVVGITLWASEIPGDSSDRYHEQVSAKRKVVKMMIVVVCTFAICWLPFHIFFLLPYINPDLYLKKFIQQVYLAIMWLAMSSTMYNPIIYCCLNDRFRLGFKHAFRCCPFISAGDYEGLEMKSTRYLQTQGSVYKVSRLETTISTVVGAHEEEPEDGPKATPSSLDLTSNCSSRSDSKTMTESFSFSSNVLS

On to `CCC[C@@H](NC(=O)c1cccc2c1CC(=O)N2)[C@@H](O)c1cccc(F)c1C` [GSK716], for which the IC50 was 0.00501 µM on Z α1‐antitrypsin [1] (5 nM Z α1‐antitrypsin, 37°C, 72 h, read-out: pIC50, blocking polymerisation in the TR‐FRET immunoassay (converted)); greater than 100 µM on Adrenergic β2 (Antagonist); 79.4 µM at NaV1.5; greater than 25.1 µM on NK1 (TACR1); greater than 50.1 µM on OATP1B1. For the same compound, the “increase in potency over GSK425” value at Z α1‐antitrypsin [1] (TR‐FRET polymerisation immunoassay) was ~ 100 fold. For the same compound, the values for the EC50 at Adrenergic β2 (Agonist), in the data set on NULL CHO-K1 and on OPRM1 were greater than 100 µM, greater than 100 µM and 10 µM, respectively. For the same compound, on human serum albumin, the “binding to human serum albumin” value is 84.2%. Also, the “time of change in Z α1‐antitrypsin fluorescence on association (faster than dead‐time of the apparatus)” value on Z α1‐antitrypsin [2] (10 µM GSK716, 0.2 mg/ml protein) is reported as less than 10 s. Also, the koff at Z α1‐antitrypsin [2] (Z α1‐antitrypsin, calculated from association rate constant and affinity, read-out: first‐order dissociation rate constant) is 6.1e-05 s⁻¹. On Z α1‐antitrypsin [2] (Z α1‐antitrypsin, read-out: second‐order association rate constant), the kon amounted to 41000 M⁻¹ s⁻¹.
